Measurements reported in PubChem BioAssay (NCI).
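Results reflect a 48-hour exposure of cells in 96-well plates to compound at five concentrations. GI50 = concentration required for 50% inhibition of growth. At the TGI there is no net growth.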

Legend:
Test in all cases: NCI anticancer screen, dose series, 48 h
786-0 renal = test system: 786-0 renal
EKVX NSCLC = test system: EKVX NSCLC
IGROV1 ovarian = test system: IGROV1 ovarian
MOLT-4 leukemia = test system: MOLT-4 leukemia
NCI-H522 lung = test system: NCI-H522 lung
OVCAR-5 ovarian = test system: OVCAR-5 ovarian
SF-268 CNS = test system: SF-268 CNS
SNB-75 CNS = test system: SNB-75 CNS
NCI-H460 lung = test system: NCI-H460 lung
SF-539 CNS = test system: SF-539 CNS

| Structure (SMILES) | TGI (786-0 renal) | TGI (EKVX NSCLC) | TGI (IGROV1 ovarian) | TGI (MOLT-4 leukemia) | TGI (NCI-H522 lung) | TGI (OVCAR-5 ovarian) | TGI (SF-268 CNS) | TGI (SNB-75 CNS) | GI50 (786-0 renal) | GI50 (EKVX NSCLC) | GI50 (IGROV1 ovarian) | GI50 (MOLT-4 leukemia) | GI50 (NCI-H460 lung) | TGI (NCI-H460 lung) | GI50 (NCI-H522 lung) | GI50 (OVCAR-5 ovarian) | GI50 (SF-268 CNS) | GI50 (SF-539 CNS) | TGI (SF-539 CNS) | GI50 (SNB-75 CNS) |
| --- | --- | --- | --- | --- | --- | --- | --- | --- | --- | --- | --- | --- | --- | --- | --- | --- | --- | --- | --- | --- |
| CCCOC(=O)C1C2CCC(O2)C1C(=O)O (stereo unspecified) | > 100 µM | > 100 µM | > 100 µM | > 100 µM | > 100 µM | > 100 µM | > 100 µM | > 100 µM |  |  |  |  |  |  |  |  |  |  |  |  |
| O=C(Nc1cccc(C(F)(F)F)c1)c1cc2ccccc2cc1O | 35.5 µM | 7.69 µM | > 57.7 µM | > 35.6 µM | > 19.9 µM | > 100 µM | > 100 µM | > 39.7 µM | 2.08 µM | 1.87 µM | 2.88 µM | 3.37 µM | 1.41 µM | > 44.1 µM | 0.471 µM | 3.5 µM | 2.7 µM | 2.25 µM | 70.2 µM | 2.25 µM |
| CCOC(=O)CC(NC(=O)c1ccc(N=NN(C)C)cc1)C(=O)OCC (stereo unspecified) | > 100 µM | > 100 µM | > 100 µM | > 100 µM | > 100 µM | > 100 µM | > 100 µM | > 100 µM |  |  |  |  |  | > 100 µM |  |  |  |  | > 100 µM |  |
| CCCCCCCCCCCCCCCCCC(=O)NCC(COP(=O)(O)O)OCC (stereo unspecified) | > 100 µM | > 100 µM | > 100 µM | > 100 µM | > 100 µM |  | 61.2 µM | 82.5 µM |  |  |  |  |  |  |  |  |  |  | > 100 µM |  |
| Cc1cc2nc3c4ccc(Br)cc4n(CCN(C)C)c3nc2cc1C | 7.65 µM | 6.58 µM | 3.97 µM | 5.62 µM | 4.66 µM | 5.88 µM | 6.24 µM | 5.19 µM | 1.44 µM | 2.02 µM | 1.12 µM | 0.412 µM | 1.26 µM | 3.95 µM | 1.99 µM | 1.99 µM | 2 µM | 1.6 µM | 3.17 µM | 1.82 µM |
| COc1ccc(C(=O)c2cc3c(N)c(C(=O)Nc4cccc(OC)c4)sc3nc2C)cc1 | > 100 µM | > 100 µM | > 100 µM | > 100 µM | > 100 µM | > 100 µM | > 100 µM | > 100 µM | 0.713 µM | 0.997 µM | 0.724 µM | 0.745 µM | 0.741 µM | > 100 µM | 1.19 µM | 1.54 µM | 1.75 µM | 0.372 µM | 2.59 µM | 0.541 µM |
| COc1cc2c(cc1OCCCOc1ccc(-c3nc4ccc(N5CCN(C)CC5)cc4[nH]3)cc1)N=C[C@@H]1CCCN1C2=O | 0.524 µM | < 0.01 µM |  | < 0.01 µM | < 0.01 µM |  |  | 11.8 µM | < 0.01 µM | < 0.01 µM |  | < 0.01 µM | < 0.01 µM | < 0.0505 µM | < 0.01 µM | < 0.01 µM | < 0.01 µM | < 0.01 µM | < 0.01 µM | < 0.01 µM |
| COC(=O)C(=O)C(C(=O)C(=O)Nc1cc(Cl)c(Cl)cc1Cl)c1nc2ccc([N+](=O)[O-])cc2[nH]c1=O (stereo unspecified) | > 100 µM | > 100 µM | > 100 µM | > 100 µM | > 100 µM | > 100 µM | > 100 µM |  |  |  |  |  |  |  |  |  |  |  | > 100 µM |  |
| Nc1nc(N)c2c(n1)NC(c1sc(Cl)nc1Cl)CC(c1ccc3c(c1)OCO3)=N2 (stereo unspecified) | 24.8 µM |  | 47.6 µM | 41.9 µM | 13 µM | 33 µM | 30.2 µM | 7.55 µM | 5.43 µM |  | 10.4 µM | 5.91 µM | 3.99 µM | 18.1 µM | 2.51 µM | 6.03 µM | 9.84 µM | 2.22 µM | 8.24 µM | 1.39 µM |
| COc1cc(C(C#N)NNc2nc(C)cc(=O)[nH]2)cc(OC)c1OC (stereo unspecified) | > 100 µM |  | > 100 µM |  | > 100 µM | > 100 µM | > 100 µM | > 100 µM |  |  |  |  |  | > 100 µM |  |  |  |  | > 100 µM |  |
| Cc1noc(/N=C2\C=C(Nc3onc(C)c3C)C(=O)c3ccccc32)c1C | > 100 µM | > 100 µM | > 100 µM | > 100 µM |  | > 100 µM | > 100 µM | > 100 µM |  |  |  |  |  | > 100 µM |  |  |  |  | > 100 µM |  |
| c1ccc(-c2nnc3nn4c(-c5ccccc5)cnnc4c3c2-c2ccccc2)cc1 | 25.8 µM | 70.9 µM |  | > 100 µM |  | > 100 µM |  | 83.9 µM |  |  |  |  |  | > 100 µM |  |  |  |  | 99.5 µM |  |
| CC(N1CCOCC1)C(O)(c1ccccc1)c1ccccn1 (stereo unspecified) | > 100 µM | > 100 µM | > 100 µM |  | > 100 µM | > 100 µM | > 100 µM | > 100 µM |  |  |  |  |  | > 100 µM |  |  |  |  | > 100 µM |  |
| COCCN1C(=O)C2c3[nH]c4ccccc4c3C3CCC(C(C)(C)C)CC3C2C1=O (stereo unspecified) | 31.5 µM | 38.2 µM | 43.4 µM | > 10 µM | 35.7 µM |  | 37.6 µM | 35.6 µM |  |  |  |  |  | 28 µM |  |  |  |  | 35.6 µM |  |
| Nc1c(C(=O)Nc2cccc3ccccc23)sc2nc3c(cc12)C(=O)CCC3 | 35.8 µM |  | > 46.7 µM | > 100 µM | 1.02 µM | > 100 µM | > 65.6 µM | 12.2 µM | 0.388 µM |  | 0.52 µM | 0.659 µM | 0.165 µM |  | 0.057 µM | 0.604 µM | 0.587 µM | 0.152 µM | 0.456 µM | 0.145 µM |
| Cc1cc(Nc2nc(-c3ccncc3)nc3ccccc23)n[nH]1 | > 100 µM |  | > 100 µM | > 100 µM | > 100 µM | > 100 µM | > 100 µM |  | 2.98 µM |  | 1.92 µM | 33.9 µM | 6.18 µM | > 100 µM | 13.1 µM | > 100 µM | 5.62 µM | 3.83 µM | > 100 µM |  |
| Cc1ccc2nc(NC(=O)C(=O)CC(=O)c3cccc4ccccc34)sc2c1 | 39.3 µM | > 100 µM | > 100 µM | > 100 µM |  | > 100 µM | > 100 µM | 36.5 µM |  |  |  |  |  | > 100 µM |  |  |  |  | 61.6 µM |  |
| CCCCNC1=C(C(=O)OCC)/C(=N/NC(=O)c2ccccc2O)CO1 | > 100 µM | > 100 µM | > 100 µM | > 100 µM | 57.8 µM | > 100 µM | > 100 µM |  |  |  |  |  |  | > 100 µM |  |  |  |  | > 100 µM |  |
